# Assay results: paper PMC6720825, “Thiol-ene "Click" Synthesis and Pharmacological Evaluation of C-Glycoside sp^2-Iminosugar Glycolipids” (Molecules, 2019)
# Entries after “also recorded” stand apart in the source; their conditions may differ. Read-outs that look alike come from different tables or passages of the source.
# What was measured:
# [1] = tested on: human lung fibroblast MRC-5 cells; experiment: Cellular toxicity (MTT assay) in MRC-5 cells; assay type: cell-based; conditions: for EC50: Homo sapiens, MRC5, MTT assay, 72 h at 37 °C; for SI (EC50 MRC-5/EC50 parasite): Selectivity Index
# α-Glcase (Yeast Maltase) = target: T1, α-Glcase (Yeast Maltase) (Saccharomyces cerevisiae, UniProt P53341); experiment: Glycosidase inhibition (Ki), yeast maltase α-glucosidase; assay type: biochemical
# T1 construct: purchased
# Source text: The inhibitory properties of the new sp^2-IGLs 1–12 and the α-C-allyl ONJ and OGJ glycosides 15, and 24 were examined against a panel of commercial glycosidases that included the α-glucosidases maltase (Saccharomyces cerevisiae) and amyloglucosidase (Aspergillus niger), the β-glucosidases from almonds and bovine liver, α-galactosidase from green coffee beans, β-galactosidase from Escherichia coli, α-mannosidase from Jack beans, and β-mannosidase from Helix pomatia. The corresponding inhibition constant (Ki) values are collected in Table 1.
# Inhibition constant (Ki) values were determined by spectrophotometrically measuring the residual hydrolytic activities of the glycosidases against the respective o- (for β-galactosidase from E. coli) or p-nitrophenyl α- or β-D-glycopyranoside (for other glycosidases) in the presence of the iminosugars. Each assay was performed in phosphate buffer or phosphate-citrate buffer (for α- or β-mannosidase and amyloglucosidase) at the optimal pH for the enzymes. The reactions were initiated by addition of the enzyme to a solution of the substrate in the absence or presence of various inhibitor concentrations. The mixture was incubated for 10–30 min at 37 °C or 55 °C (for amyloglucosidase) and the reaction was quenched by addition of 1 M Na2CO3. Reaction times were appropriate to obtain 10–20% conversion of the substrate in order to achieve linear rates. The absorbance of the resulting mixture was determined at 405 nm. Approximate value of Ki was determined from the slope of Dixon plots using a fixed concentration of substrate (around the Km value for the different glycosidases) and various concentrations of inhibitor. Full Ki determinations and enzyme inhibition mode were determined from the slope of Lineweaver–Burk plots and double reciprocal analysis. Representative examples of Dixon and Lineweaver–Burk plots are shown in the Supplementary materials.
# [2] = tested on: human solid tumor cell lines A549, SW1573 (lung), HBL-100, T-47D (breast), HeLa (cervix), WiDr (colon); experiment: Antiproliferative activity (SRB assay) against a panel of six human solid tumor cell lines; assay type: cell-based; conditions: for GI50: read-out: GI50 (concentration to achieve 50% growth inhibition), 48 h, tested 1 to 100 μM, only values below 100 μM significant; for GI50 (concentration to achieve 50% growth inhibition): 48 h, tested 1 to 100 μM, only values below 100 μM significant
# Procedure: The antiproliferative activity of all the sp^2-iminosugar C-glycosides (1–12) was evaluated against a panel of six representative human solid tumor cell lines including lung (A549 and SW1573), breast (HBL-100, T-47D), cervix (HeLa), and colon (WiDr).
# All reagents were used as purchased from commercial suppliers without further purification. The human solid tumor cell lines A549 (lung), HBL-100 (breast), HeLa (cervix), SW1573 (lung), T-47D (breast), and WiDr (colon) were used in this study. These cell lines were a kind gift from Prof. G. J. Peters (VU Medical Center, Amsterdam, The Netherlands).
# Cells were inoculated onto 96-well microtiter plates in a volume of 100 μL per well at densities of 2500 (A549, HBL-100, HeLa, and SW1573) and 5000 (T-47D and WiDr) cells per well, based on their doubling times. Compounds were initially dissolved in DMSO at 400 times the desired final maximum test concentration. Control cells were exposed to an equivalent concentration of DMSO (0.25% v/v, negative control). Each agent was tested in triplicate at different dilutions in the range of 1 to 100 μM. The drug treatment started on day 1 after plating. Drug incubation times were 48 h, after which cells were precipitated with 25 μL ice-cold TCA (50% w/v) and fixed for 60 min at 4 °C. Then the SRB assay was performed. The optical density (OD) of each well was measured at 530 nm, using BioTek’s PowerWave XS Absorbance Microplate Reader. Values were corrected for background OD from wells only containing medium. The antiproliferative activity for each compound, expressed as GI50 values, was calculated according to NCI formulas.
# THP-1 cells = experiment: Cellular toxicity (MTT assay) in THP-1 cells; assay type: cell-based, human; conditions: for EC50: Homo sapiens, THP-1, MTT assay, 72 h at 37 °C; for SI (EC50 THP-1/EC50 parasite): Selectivity Index
# Procedure: Human myelomonocytic cell line THP-1 was grown at 37 °C and 5% CO2 in RPMI-1640 supplemented with 10% iFBS, 2 mM […], 100 U/mL penicillin, and 100 μg/mL streptomycin; 3 × 10^4 cells/well in 96-well plates were differentiated to macrophages with 20 ng/mL of PMA treatment for 48 h followed by 24 h of culture in fresh medium. Cellular toxicity of all compounds was determined using the colorimetric MTT-based assay after incubation at 37 °C for 72 h in the presence of increasing concentrations of compounds [71].
# [3] = tested on: intracellular amastigotes of Leishmania donovani MHOM/ET/67/HU3 line; experiment: Susceptibility of intracellular Leishmania amastigotes (luciferase assay); assay type: cell-based; conditions: L. donovani in THP-1 macrophages, 72 h at 37 °C, threshold 20 μM
# Procedure: The leishmanicidal activity of all the synthesized sp^2-iminosugar C-glycosides (1–12) was evaluated against intracellular amastigotes of Leishmania donovani MHOM/ET/67/HU3 line with luciferase gene integrated into the parasite genome. […] A strong influence of the nature of the lipid chain α-linked to the pseudoanomeric position of the bicyclic core in the sp^2-IGLs was inferred from the corresponding data. […] The longer-chain sp^2-IGLs 2 and 8 were over the 20 μM concentration threshold in this assay. In the sulfone series, the results evidenced some disparity between the ONJ and OGJ epimers.
# Macrophage-differentiated THP-1 cells, which are considered a suitable model for human macrophages, were plated at a density of 3 × 10^4 or 3 × 10^5 macrophages/well in 96-well white polystyrene microplates or 24-well tissue culture chamber slides, respectively, and were infected at a macrophage/parasite ratio of 1:10 with L. donovani promastigotes. Twenty-four hours after infection at 35 °C and 5% CO2, extracellular parasites were removed by washing with serum-free medium. Infected cell cultures were then incubated at different compound concentrations in RPMI 1640 medium plus 10% iFBS at 37 °C with 5% CO2 for 72 h. To determine the susceptibility of L. donovani LUC amastigotes, infected macrophages maintained in 96-well plates were lysed and then luminescence intensity was measured as indicative of the intracellular parasite growth, using the Luciferase Assay System Kit (Promega, Madison, Wis.) according to the instructions of the supplier. To determine the susceptibility of L. donovani HU3 amastigotes, infected macrophages maintained in 24-well plates were fixed for 30 min at 4 °C with 2.5% paraformaldehyde phosphate-buffered saline (PBS; 1.2 mM KH2PO4, 8.1 mM Na2HPO4, 130 mM NaCl, and 2.6 mM KCl adjusted to pH 7) and permeabilized with 0.1% Triton X-100 in PBS for 30 min. Intracellular parasites and macrophages were detected by nuclear staining with ProLong® Gold antifade reagent plus DAPI (Invitrogen). The percentage infection and mean number of amastigotes from infected macrophages were determined with 200 macrophages/well.
# [4] = mean ± SD, three independent determinations, competitive inhibition
# [5] = mean ± SD, three independent determinations, competitive inhibition, read-out: Ki, α-Glcase (Yeast Maltase)
# T1 sequence (P53341 whole entry): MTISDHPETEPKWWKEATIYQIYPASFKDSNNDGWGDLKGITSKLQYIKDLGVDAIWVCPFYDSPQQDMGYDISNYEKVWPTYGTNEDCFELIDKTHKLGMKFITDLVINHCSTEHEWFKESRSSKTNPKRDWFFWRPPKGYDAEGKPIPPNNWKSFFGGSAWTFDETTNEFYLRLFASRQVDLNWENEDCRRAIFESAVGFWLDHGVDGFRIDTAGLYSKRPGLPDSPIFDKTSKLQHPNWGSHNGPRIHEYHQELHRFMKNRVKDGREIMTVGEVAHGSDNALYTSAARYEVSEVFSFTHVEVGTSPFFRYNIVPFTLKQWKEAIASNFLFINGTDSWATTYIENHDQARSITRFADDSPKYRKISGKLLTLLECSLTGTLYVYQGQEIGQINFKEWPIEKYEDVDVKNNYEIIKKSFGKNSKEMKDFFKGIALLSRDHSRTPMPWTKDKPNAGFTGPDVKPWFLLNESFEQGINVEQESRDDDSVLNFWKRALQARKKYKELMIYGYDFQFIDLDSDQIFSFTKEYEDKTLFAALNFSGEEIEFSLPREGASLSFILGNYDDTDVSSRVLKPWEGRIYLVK
SMILES,EC50 [1] [µM],SI (EC50 MRC-5/EC50 parasite) [1],"Ki, α-Glcase (Yeast Maltase) (α-Glcase (Yeast Maltase); [4])",GI50 [2] [µM],EC50 (THP-1 cells) [µM],EC50 [3] [µM],GI50 (concentration to achieve 50% growth inhibition) [2],Ki (α-Glcase (Yeast Maltase); [5]) [µM],SI (EC50 THP-1/EC50 parasite) (THP-1 cells),Ki (α-Glcase (Yeast Maltase)) [µM]
"CCCCCCCCS(=O)(=O)CCC[C@@H]1[C@H](O)[C@@H](O)[C@@H](O)[C@H]2COC(=O)N12 [Compound 10, (1R)-1-[3-(Octylsulfonyl)propyl]-5N,6O-oxomethylidene-1-deoxygalactonojirimycin]",185 ± 21.2,13.40,n.i.,> 100,> 200,13.8 ± 1.72,–,–,–,–
"CC(C)(C)OC(=O)NCCS(=O)(=O)CCC[C@@H]1[C@H](O)[C@@H](O)[C@@H](O)[C@H]2COC(=O)N12 [Compound 12, (1R)-1-[3-(N-tert-Butoxycarbonylaminoethylsulfonyl)propyl]-5N,6O-oxomethylidene-1-deoxygalactonojirimycin]",182 ± 14.9,< 9.08,n.i.,> 100,> 200,> 20,did not show any significant antiproliferative activity,–,–,–
"CCCCCCCCCCCCS(=O)(=O)CCC[C@@H]1[C@H](O)[C@@H](O)[C@@H](O)[C@H]2COC(=O)N12 [Compound 11, (1R)-1-[3-(Dodecylsulfonyl)propyl]-5N,6O-oxomethylidene-1-deoxygalactonojirimycin]",162 ± 20.2,< 8.10,n.i.,26 to 82,> 200,> 20,–,–,–,–
"CCCCCCCCSCCC[C@@H]1[C@H](O)[C@@H](O)[C@H](O)[C@H]2COC(=O)N12 [Compound 1, (1R)-1-[3-(Octylthio)propyl)-5N,6O-oxomethylidene-1-deoxynojirimycin]",32.2 ± 1.03,4.19,–,14 to 54,131 ± 4.29,7.68 ± 0.29,–,0.34 ± 0.02,17.06,–
"CCCCCCCCCCCCS(=O)(=O)CCC[C@@H]1[C@H](O)[C@@H](O)[C@H](O)[C@H]2COC(=O)N12 [Compound 5, (1R)-1-[3-(Dodecylsulfonyl)propyl]-5N,6O-oxomethylidene-1-deoxynojirimycin]",71.5 ± 3.75,6.25,–,26 to 82,100 ± 10.9,11.4 ± 5.08,–,2.5 ± 0.2,8.78,–
"C[C@@H]1[C@H](O)[C@@H](C)/C=C/C=C/C=C/C=C/C=C/C=C/C=C/[C@H](O[C@@H]2O[C@H](C)[C@@H](O)[C@H](N)[C@@H]2O)C[C@@H]2O[C@](O)(C[C@@H](O)C[C@@H](O)[C@H](O)CC[C@@H](O)C[C@@H](O)CC(=O)O[C@H]1C)C[C@H](O)[C@H]2C(=O)O [AmB, amphotericin B, reference compound]",16.9 ± 2.44,112.87,–,–,20.1 ± 4.43,0.15 ± 0.01,–,–,133.80,–
"CCCCCCCCCCCCSCCC[C@@H]1[C@H](O)[C@@H](O)[C@H](O)[C@H]2COC(=O)N12 [Compound 2, (1R)-1-[3-(Dodecylthio)propyl]-5N,6O-oxomethylidene-1-deoxynojirimycin]",19.9 ± 2.76,< 1,nanomolar competitive inhibitor,9.6 to 19,72.2 ± 4.18,> 20,–,0.74 ± 0.03,< 3.61,–
"CCCCCCCCCCCCSCCC[C@@H]1[C@H](O)[C@@H](O)[C@@H](O)[C@H]2COC(=O)N12 [Compound 8, (1R)-1-[3-(Dodecylthio)propyl]-5N,6O-oxomethylidene-1-deoxygalactonojirimycin]",32.1 ± 1.94,< 1.60,did not inhibit and n.i.,9.6 to 19,68.3 ± 3.04,> 20,–,–,< 3.42,–
"CC(C)(C)OC(=O)NCCS(=O)(=O)CCC[C@@H]1[C@H](O)[C@@H](O)[C@H](O)[C@H]2COC(=O)N12 [Compound 6, (1R)-1-[3-(N-tert-Butoxycarbonylaminoethylsulfonyl)propyl]-5N,6O-oxomethylidene-1-deoxynojirimycin]",155 ± 3.1,< 7.76,–,> 100,> 200,> 20,did not show any significant antiproliferative activity,0.75 ± 0.02,–,–
"CC(C)(C)OC(=O)NCCSCCC[C@@H]1[C@H](O)[C@@H](O)[C@H](O)[C@H]2COC(=O)N12 [Compound 3, (1R)-1-[3-(N-tert-Butoxycarbonylaminoethylthio)propyl]-5N,6O-oxomethylidene-1-deoxynojirimycin]",134 ± 6.02,8.95,–,> 100,> 200,15 ± 1.28,did not show any significant antiproliferative activity; also recorded: out of range; also recorded: did not display significant antiproliferative activity,–,–,0.28 ± 0.02
"CCCCCCCCS(=O)(=O)CCC[C@@H]1[C@H](O)[C@@H](O)[C@H](O)[C@H]2COC(=O)N12 [Compound 4, (1R)-1-[3-(Octylsulfonyl)propyl]-5N,6O-oxomethylidene-1-deoxynojirimycin]",189 ± 15.6,< 9.45,–,> 100,> 200,> 20,–,2.6 ± 0.3,–,–
